Measurements published in ChEMBL document CHEMBL1671733, “Clinical evaluation of a dried blood spot assay for atazanavir” (Antimicrob Agents Chemother, 2010).

Assays:
Format in all cases: ADME, organism-based
[1] = Plasma concentration in HIV infected patient at 300 mg qd measured after 16.60 hrs by plasma based assay using HPLC; conditions: human
Homo sapiens [2] = organism: Homo sapiens; assay: Plasma concentration in HIV infected patient with HIV RNA of <50 copies/ml by dried blood spot assay using reversed-phase ultrahigh-performance liquid chromatography; conditions: in vivo
[3] = Cmax in HIV infected patient at 300 mg qd measured after 16.60 hrs by plasma based assay using HPLC; parameters: dose 300 mg; conditions: human
[4] = Plasma concentration in HIV infected patient at 400 mg qd measured after 13.06 hrs by plasma based assay using HPLC; conditions: human
[5] = Cmax in HIV infected patient at 400 mg qd measured after 13.06 hrs by plasma based assay using HPLC; parameters: dose 400 mg; conditions: human
[6] = Cmin in HIV infected patient at 400 mg qd measured after 13.06 hrs by plasma based assay using HPLC; conditions: human, read-out: Cmin
[7] = Cmin in HIV infected patient at 300 mg qd measured after 16.60 hrs by plasma based assay using HPLC; conditions: human, read-out: Cmin
Homo sapiens [8] = organism: Homo sapiens; assay: Plasma concentration in HIV infected patient with HIV RNA of >50 copies/ml by dried blood spot assay using reversed-phase ultrahigh-performance liquid chromatography; conditions: in vivo

COC(=O)N[C@H](C(=O)N[C@@H](Cc1ccccc1)[C@@H](O)CN(Cc1ccc(-c2ccccn2)cc1)NC(=O)[C@@H](NC(=O)OC)C(C)(C)C)C(C)(C)C [ATAZANAVIR]
concentration at 16.6 h [1]: 1630 ng/mL | Cp (Homo sapiens [2]): 1582 ng/mL | Cmax [3]: 7220 ng/mL | concentration at 13.06 h [4]: 465 ng/mL | Cmax [5]: 787 ng/mL | concentration at 13.06 h [6]: 342 ng/mL | concentration at 16.6 h [7]: 196 ng/mL | Cp (Homo sapiens [8]): 543 ng/mL
